Results published in patent US6124293A, “Semi-synthetic ecteinascidins” (The Board of Trustees of the University of Illinois, priority 1999, dated 2000).

Assays:
[1] = test system: P388 murine leukemia, B16 melanoma, Lewis lung carcinoma, and several human tumor xenograft models; conditions: activity against P388, B16, Lewis lung, human tumor xenografts in mice; cited from earlier work
L1210 murine leukemia = assay: in vitro cytotoxicity to L1210 murine leukemia; format: cell-based; conditions: potency relative to Et 743
Text: In view of the exceptional antitumor properties of the natural ecteinascidins, the present invention has studied the antitumor activities of the semi-synthetic analogs prepared herein.

B16 melanoma = conditions: recent experiments, NCI evaluation; cited from earlier work

Row | SMILES | efficacy in vivo [1] | IC50 (Et 743)/IC50 (L1210 murine leukemia) | survivors 60 days following infection with B16 melanoma (B16 melanoma)
1 | COc1c(C)cc2c(c1O)[C@H]1N[C@@H](C2)[C@H](O)N2[C@H]1[C@@H]1SC[C@]3(NCCc4c3[nH]c3ccccc43)C(=O)OC[C@H]2c2c3c(c(C)c(OC(C)=O)c21)OCO3 [Et 722] | promising efficacy in vivo | – | –
2 | COc1cc2c(cc1O)CCN[C@]21CSC2c3c(OC(C)=O)c(C)c4c(c3C(COC1=O)N1C2C2NC(Cc3cc(C)c(OC)c(O)c32)[C@@H]1O)OCO4 (stereo partly drawn) [Et 729] | promising efficacy in vivo | 10 | 8 of 10
3 | COc1cc2c(cc1O)CCN[C@]21CSC2c3c(OC(C)=O)c(C)c4c(c3C(COC1=O)N1C2C2c3c(cc(C)c(OC)c3O)CC([C@@H]1O)N2C)OCO4 (stereo partly drawn) [Et 743] | promising efficacy in vivo | – | –
4 | COc1cc2c(cc1O)CCN(C)[C@]21CSC2c3c(OC(C)=O)c(C)c4c(c3C(COC1=O)N1C2C2c3c(cc(C)c(OC)c3O)CC([C@@H]1O)N2C)OCO4 (stereo partly drawn) [Et 757] | – | 50 | –
5 | COC(=O)C(C(=O)OC)[C@H]1C2Cc3cc(C)c(OC)c(O)c3C(C3C4SC[C@]5(NCCc6cc(O)c(OC)cc65)C(=O)OCC(c5c6c(c(C)c(OC(C)=O)c54)OCO6)N31)N2C (stereo partly drawn) [Et 875] | – | 1 | –
6 | COc1cc2c(cc1O)CCNC21CSC2c3c(OC(C)=O)c(C)c4c(c3C(COC1=O)N1C(O)C3Cc5cc(C)c(OC)c(O)c5C(C21)N3Cc1ccc(CN2C3Cc5cc(C)c(OC)c(O)c5C2C2C5SCC6(NCCc7cc(O)c(OC)cc76)C(=O)OCC(c6c7c(c(C)c(OC(C)=O)c65)OCO7)N2C3O)cc1)OCO4 (stereo not drawn) [Et 1560] | – | 0.25 | –
7 | COc1cc2c(cc1O)CCN(C)[C@]21CSC2c3c(OC(C)=O)c(C)c4c(c3C(COC1=O)N1C2C2NC(Cc3cc(C)c(OC)c(O)c32)[C@@H]1O)OCO4 (stereo partly drawn) [Iso-Et 743] | – | 17 | –
